Columns and labels:
[1] = test system: C57BL/6J mice fed with a high-fat diet; test: Insulin in blood of dietary-induced obesity mouse model; assay type: in vivo; conditions: administration groups, particularly the low-dose group; 85 days; FIG. 16
Description: (§1) For each individual of the male C57BL/6J mice after a lapse of 85 days into the test of Example 9, blood was collected from the abdominal vena cava using a syringe supplemented with heparin under anesthesia with 2% isoflurane. The amount of blood collected was set to approximately 0.8 mL. The collected blood was stored under ice cooling until centrifugation. After centrifugation (conditions: 4° C., approximately 1800×g, 10 min), the upper layer was recovered to obtain plasma. The plasma was dispensed to sampling tubes and cryopreserved until measurement. The mouse adiponectin concentration contained in the mouse plasma obtained from each individual was measured using a commercially available ELISA kit, and the average adiponectin concentration of each test group was determined.
(§2) In Example 10, the amount of moose insulin contained in the mouse plasma obtained from each individual was measured using a commercially available ELISA kit, and the average insulin concentration of each test group was determined. The ordinate of the drawing depicts the insulin concentration (ng/mL) in the mouse plasma. The test group indicated by each bar of the bar graph is the same as in FIG. 15 mentioned above.

[2] = test system: C57BL/6J mice fed with a high-fat diet; test: Leptin in blood of dietary-induced obesity mouse model; assay type: in vivo; conditions: 0.037 μg/kg/day and 0.01 mg/kg/day; 85 days; FIG. 17
Description: as §1
as §2, with “Leptin is a protein hormone that regulates appetite and metabolism. The leptin concentration in blood is known to elevate due to obesity, resulting in leptin resistance. In” for “In”, “mouse leptin” for “moose insulin”, “leptin” for “insulin”, “(pg/mL)” for “(ng/mL)”, “FIGS.” for “FIG.”, “15 and 16” for “15”

[3] = biological target: T1, human-derived PPARγ ligand-binding domain (Homo sapiens, UniProt P37231); test: PPARγ activation test (GAL4 chimera / luciferase reporter in CV-1 cells); assay type: cell-based; conditions: for PPARγ ligand activity, ratio (%) of the activity of each synthesized product to the activity of the control substance (DMSO): control = 100
T1 construct: expressed in transfected cells; host or cells: CV-1 cells (African green monkey kidney-derived)
T1 sequence (P37231 238-503 limits assumed): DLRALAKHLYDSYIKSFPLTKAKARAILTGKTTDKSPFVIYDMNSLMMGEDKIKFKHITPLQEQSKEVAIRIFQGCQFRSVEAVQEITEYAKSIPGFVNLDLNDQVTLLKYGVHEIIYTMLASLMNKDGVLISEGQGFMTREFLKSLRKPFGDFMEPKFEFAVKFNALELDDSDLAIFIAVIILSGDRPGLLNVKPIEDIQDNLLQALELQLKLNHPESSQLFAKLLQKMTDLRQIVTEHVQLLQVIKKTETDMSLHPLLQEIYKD
Description: A measurement method for the PPAR activation test in Examples below were conducted as described below.
(1) PPARγ Activation Test
A plasmid pM-PPARγ for the expression of a chimeric protein composed of a human-derived PPARγ ligand-binding domain and a DNA-binding domain of a yeast-derived GAL4 transcription factor, and a plasmid p4×UASg-tk-luc containing a Cypridina-derived luciferase structural gene linked downstream of a GAL4 responsive sequence designed such that its expression was controlled by this chimeric protein, were prepared. Also, a Renilla-derived luciferase expression plasmid pRL-CMV having a viral expression promoter for constitutive intracellular expression was prepared as a plasmid for the correction of transfection efficiency. On the other hand, DMEM containing 10% FBS was used as a medium for CV-1 cells (African green monkey kidney-derived). The CV-1 cells were seeded at 4.5×10^5 cells over a 100-mm Petri dish and cultured in an incubator at 37° C. in a 5% CO2 environment.
(1-2) Transformation of CV-1 Cell
The CV-1 cells thus cultured for 24 hours were cotransfected with 2.0 μg of pM-PPARγ, 4.0 μg of p4×UASg-tk-luc, and 0.04 μg of pRL-CMV to transform the CV-1 cells. The transformation was carried out by the liposome method using LipofectAMINE(R) Reagent (a product of Invitrogen Corp.). After the transformation operation, the cells were cultured at 37° C. for 3.5 hours in a 5% CO2 environment.
(1-3) Addition of Test Sample
The CV-1 cells thus incubated were recovered by trypsin treatment, and […] thereof was inoculated at a concentration of 1×10^5 cells/mL to a 96-well plate. Each test sample was diluted with DMEM containing 4% FBS to adjust its concentration to twice the final concentration, and […] thereof was added to the 96-well plate mentioned above. DMSO was used as a control substance. After the addition of the test sample or the control substance (DMSO), the mixture was incubated at 37° C. for 24 hours in a 5% CO2 environment.
(1-4) Measurement of Luciferase Activity
The luciferase activity was measured using Dual-Luciferase(R) Reporter Assay System (a product of Promega K.K.). The culture solution was removed from the 96-well plate. The cells were washed with PBS(−), and moisture was removed therefrom using a paper towel. To the cells, […] of a cell lysis solution (Passive Lysis Buffer) was added, and the 96-well plate was shaken for 15 minutes. The cell extract was transferred at […] to a 96-well luminoplate. A luminescent substrate solution was added thereto at […]. The luminescence intensity based on the luciferase was measured for a measurement time set to 10 seconds using a luminometer (Micro Lumat Plus, a product of Berthold Japan Co., Ltd.).
The PPARγ-activating effect of the test sample was evaluated on the basis of a ratio (%) relative to controls. In order to correct transfection efficiency, the measured Cypridina luciferase activity value (A) was divided by the measured Renilla luciferase activity value (B) to determine a value (A/B). The average A/B value of the control group was calculated and defined as 100. The A/B value of the test sample was calculated, and the ratio (%) of this value to the average value of the controls was used as the ability of the test sample to activate PPARγ.
Their PPARγ ligand activity was measured in the same way as in Example 7 except that the incubation time after the test sample addition was set to 48 hours. The values shown in the table below and the ordinate of the drawing depict the ratio (%) of the activity of each synthesized product to the activity of the control substance (DMSO). In Table 1 and FIG. 13, these various butenolide compounds used as test samples were each indicated by the functional group of R^2 in the formula (1).

[4] = test system: liver (hepatocytes) of C57BL/6J mice fed with a high-fat diet; test: Influence of administration on liver tissue (histopathological examination); assay type: in vivo, mouse; conditions: for deposition of fat droplets in the hepatocytes: 12 weeks, high-fat diet
Text: In Example 13, the liver was collected during the collection of fat tissues from each individual and histopathologically examined. The findings from the histopathological examination were as described below.
For the individuals of the normal group, the deposition of fat droplets was not observed in the hepatocytes, whereas only the very mild infiltration of inflammatory cells was observed.

With `O=C1C=C(c2ccccc2)C(O)O1` (stereo not drawn) [5H4PB, 5-hydroxy-4-phenylbutenolide] the “insulin concentration in mouse plasma compared with the control group” value [1] was “inhibition of a rise in insulin concentration was confirmed”, the “leptin concentration in mouse plasma compared with the control group” value [2] was “inhibition of a rise in leptin concentration was confirmed in a dose-dependent manner” and the “PPARγ ligand activity of butenolide compounds (in words)” value ([3]; Example 8, incubation 48 hours, Table 1 and FIG. 13) was “high activity in a low concentration range”. For the same compound, the “PPARγ ligand activity of synthesized product” value ([3]; final concentration 3.5 μM, incubation 24 hours, FIG. 12) was “high PPARγ ligand activity”, the “PPARγ ligand activity, ratio (%) of the activity of each synthesized product to the activity of the control substance (DMSO)” value (shortened to “PPARγ ligand activity, ratio (%)”) ([3]; test sample concentration 0.032 μg/mL, incubation 48 hours) was 100% and the “PPARγ ligand activity, ratio (%)” value ([3]; test sample concentration 0.08 μg/mL, incubation 48 hours) was 80%. The “PPARγ ligand activity, ratio (%)” value ([3]; test sample concentration 0.16 μg/mL, incubation 48 hours) was 120%, the “PPARγ ligand activity, ratio (%)” value ([3]; test sample concentration 0.4 μg/mL, incubation 48 hours) was 120% and the “PPARγ ligand activity, ratio (%)” value ([3]; test sample concentration 0.8 μg/mL, incubation 48 hours, * = twice or more vs control, p<0.05) was 220* %. The “PPARγ ligand activity, ratio (%)” value ([3]; test sample concentration 2 μg/mL, incubation 48 hours, * = twice or more vs control, p<0.05) was 370* %, the “PPARγ ligand activity, ratio (%)” value ([3]; test sample concentration 4 μg/mL, incubation 48 hours, * = twice or more vs control, p<0.05) was 520* % and the “PPARγ ligand activity, ratio (%)” value ([3]; test sample concentration 10 μg/mL, incubation 48 hours, * = twice or more vs control, p<0.05) was 710* %. The “deposition of fat droplets in the hepatocytes” value ([4]; 0.037 μg/kg/day) was “no or only weak depositions of fat droplets”, the “deposition of fat droplets in the hepatocytes” value ([4]; 0.01 mg/kg/day) was “no or only weak depositions of fat droplets” and the “hepatic damage (histopathological findings)” value ([4]; compared with the rosiglitazone administration groups or the control group) was “free from hepatic damage”.

Source: US9943501B2 (KOJUN JAPAN CO., LTD., priority 2014, dated 2018)
